Source: publication PMC10666548, “Identification of the bacterial metabolite aerugine as potential trigger of human dopaminergic neurodegeneration” (Environment international, 2023)

Tests used:
[1] = test system: Cortical neurons (Cortex.4U); test: iPSC-derived neuron viability, calcein-AM & H-33342 imaging; format: cell-based, human
Procedure: (§1) Commercial preparation of iPSC-derived neurons (Cortex.4U and CNS.4U) were handled and used as described by the manufacturer (nCardia). In brief, plates were coated with 10 μg/ml PLO, 10 μg/ml laminin and 10 μg/ml fibronectin. Cells were thawed and immediately seeded onto 96-well plates in their respective culture media (Cortex.4U: Cortex.4U™ culture medium with Cortex.4U™ supplement; CNS.4U: Neuro.4U Basal Medium [Ax-M-NBM250] with Neuro-Supplement 2 [Ax-M-DCS-DA]) to be used in neurite outgrowth assays.
(§2) The assays were performed as described previously ([Hoelting et al., 2016]; [Klima et al., 2021]; [Krug et al., 2013]). In brief, 30′000 cells per well were seeded on d2 (LUHMES) / d0 (peripheral neurons, Cortex.4U, CNS.4U) in their respective differentiation media into standard pre-coated 96-well plates. They were incubated for 1 h at 37 °C and 5% CO2 before treatment. 24 h after treatment the Calcein/Hoechst readout was performed.
(§3) Neurite area (NA) and viability (V) were assessed as described previously ([Stiegler et al., 2011]). In brief, cells were stained with 1 μM calcein-AM and 1 μg/ml H-33342 for 30 min at 37 °C and 5% CO2. Image acquisition was performed using an Array-Scan VTI HCS Reader (Cellomics, PA, USA) equipped with a Hamamatsu ORCA-ER camera. 10 fields per well were imaged with 2 channels at 20x magnification (2×2 pixel binning). Excitation/emission wavelengths of 365 ± 50/535 ± 45 nm were used for Hoechst detection in channel 1 and 474 ± 40/535 ± 45 nm were used for calcein detection in channel 2.

[2] = test system: Mixed central nervous system neurons (CNS.4U); test: as above; format: cell-based, human; conditions: 24 h, at higher concentrations than LUHMES
Procedure: as §1, §2, §3

5HT2B receptor = test system: 5HT2B receptor; set-up: method as in Lin et al., 2017; conditions: ref Lin et al., 2017; cited from earlier work

OCC1CSC(c2ccccc2O)=N1 (stereo not shown) [aerugine, 2-[4-(hydroxymethyl)-4,5-dihydro-1,3-thiazol-2-yl]phenol]
effect on cell viability ([1]; 24 h): sensitive to aerugine
fold higher toxic concentration than for DA neurons (mature LUHMES) ([1]; cortical neurons vs mature LUHMES): about 50 x
effect on cell viability [2]: clearly affected by aerugine
displacement of radioactive lysergic acid diethylamide (5HT2B receptor): displaced radioactive lysergic acid diethylamide at low μM concentrations
